Measurements from patent publication EP4707280A1, “1,4-CINEOLE DERIVATIVE AND INTERMEDIATE THEREOF, HERBICIDE CONTAINING SAID DERIVATIVE AS ACTIVE INGREDIENT, METHOD FOR USING HERBICIDE, AND METHOD FOR PREPARING AGROCHEMICAL COMPOSITION” (HOKKO CHEMICAL INDUSTRY CO., LTD., priority 2023, dated 2024).

What was measured:
Type in all cases: in vivo
[1] = tested on: Amaranthus viridis; assay: Test Example 8: herbicidal effect test by stem and leaf treatment in upland field (low dose); details: 7.5 g per 10 ares, sprayed seven days after sowing, upland soil, 14 days after application, read-out: weed inhibition rate
In short: (§1)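 Post-emergence spray, seven days after sowing, of water-diluted emulsifiable concentrate at 100 L per 10 ares, delivering 7.5 g active ingredient per 10 ares, onto 36 cm^2 pots of alluvial loam. Weed inhibition rate (%) scored 14 days after application, in duplicate.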

[2] = tested on: Chenopodium album; assay: as above; details: 7.5 g per 10 ares, sprayed seven days after sowing, upland soil, 14 days after application, read-out: weed inhibition rate
In short: as §1

[3] = tested on: Lindernia pyxidaria; assay: Test Example 5: herbicidal effect test by soil application in paddy rice (low dose); details: 336 h, 7.5 g per 10 ares, applied immediately after sowing, flooded pots, 14 days after application, read-out: weed inhibition rate
In short: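 7.5 g a.i./10 a applied by dropper into ~3 cm floodwater immediately post-sowing (seeds 0–1 cm, 30 per species; puddled fertilized paddy soil, glasshouse). Duplicates; day-14 inhibition %.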

[4] = tested on: Amaranthus viridis; assay: Test Example 4: herbicidal effect test by stem and leaf treatment in upland field; details: 120 g per 10 ares, sprayed seven days after sowing, upland soil, 14 days after application, read-out: weed inhibition rate
In short: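 Post-emergence spray, 7 days after sowing: diluted emulsifiable concentrate at 100 liters per 10 ares delivering 120 g active ingredient per 10 ares. Weeds grown from seed mixed into the top 1 cm of alluvial loam. Inhibition (%) by formula at 14 days; duplicates.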

[5] = tested on: Chenopodium album; assay: as above; details: 120 g per 10 ares, sprayed seven days after sowing, upland soil, 14 days after application, read-out: weed inhibition rate
[6] = tested on: Lindernia pyxidaria; assay: Test Example 1: herbicidal effect test by soil application in paddy rice; details: 336 h, 120 g active ingredient per 10 ares, applied immediately after sowing, flooded pots, 14 days after application, read-out: weed inhibition rate
In short: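 Pre-emergence test in puddled, flooded paddy soil (about 3 cm water), 30 seeds per weed sown at 0–1 cm depth in a glass greenhouse. Emulsifiable concentrate diluted in water and dropped onto the pots straight after sowing at 120 g a.i. per 10 ares. Weed inhibition (%) scored at 14 days, in duplicate.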

[7] = tested on: Lindernia pyxidaria; assay: Test Example 2: herbicidal effect test by application during growth period of paddy rice; details: 120 g per 10 ares, applied seven days after sowing, flooded pots, 14 days after application, read-out: weed inhibition rate
In short: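 Greenhouse pots of flooded paddy soil, seeded shallowly with 30 seeds per weed, are treated on day 7 by dropper with diluted emulsifiable concentrate equal to 120 g a.i./10 a. Duplicate pots are scored for inhibition rate 14 days post-application.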

[8] = tested on: Amaranthus viridis; assay: Test Example 7: herbicidal effect test by soil application in upland field (low dose); details: 7.5 g per 10 ares, sprayed one day after sowing, upland soil, 14 days after application, read-out: weed inhibition rate
[9] = tested on: Echinochloa crus-galli var. formosensis at the three-leaf stage; assay: Comparative Example: herbicidal effect test by application during growth period of paddy rice (three-leaf stage, Table 7); details: 504 h, active ingredient 7.5 g per 10 ares, emulsifiable concentrate applied by dropper to flooded pots, 21 days after chemical application, triplicate, read-out: Weed inhibition rate (%)
Procedure: As an example, the herbicidal effect on Echinochloa crus-galli var. formosensis at the three-leaf stage was confirmed by the following method, and the results are specifically shown in Table 7 as a comparative example.
Wagner pots with an area of […] were filled with paddy soil, followed by addition of water and incorporation of chemical fertilizer (N:P:K = 16:16:16), after which puddling was performed. After that, 30 seeds of Echinochloa crus-galli var. formosensis were sown at a depth of 0 cm to 1 cm. Immediately after sowing, the pots were flooded and a water depth of approximately 3 cm was maintained. Subsequent management was conducted in a glass greenhouse. When Echinochloa crus-galli var. formosensis reached the three-leaf stage, an emulsifiable concentrate prepared according to Formulation Example 5 using the compound shown below was diluted with water, and a specified amount of the diluted solution was applied by dropper. The amount of the active ingredient to be applied was equivalent to 7.5 g per 10 ares. The test was conducted in triplicate for each chemical concentration group, and the weed inhibition rate (%) was determined 21 days after chemical application using the following formula (Math. 1).

Row | SMILES | inhibition at 75 g/ha [1] [%] | inhibition at 75 g/ha [2] [%] | inhibition at 75 g/ha [3] [%] | inhibition at 1200 g/ha [4] [%] | inhibition at 1200 g/ha [5] [%] | pest or weed control at 1200 g/ha [6] [%] | inhibition at 1200 g/ha [7] [%] | inhibition at 75 g/ha [8] [%] | inhibition at 75 g/ha [9] [%]
1 | C=CCO[C@@H]1C[C@]2(C)O[C@@]1(C(C)C)C[C@H]2OCc1ccccc1F [1-930, (1S,2R,4R,5R)-2-[(2-fluorophenyl)methoxy]-1-methyl-4-isopropyl-5-prop-2-enoxy-7-oxabicyclo[2.2.1]heptane] | ≥ 80 | ≥ 80 | ≥ 80 | ≥ 80 | ≥ 80 | ≥ 80 | ≥ 80 | ≥ 80 | 
2 | CC(C)[C@]12C[C@@H](OCc3ccccc3F)[C@](C)(CC1C)O2 (stereo partly drawn) [1-92, (1S,2R,4R)-2-((2-fluorobenzyl)oxy)-4-isopropyl-1,5-dimethyl-7-oxabicyclo[2.2.1]heptane] |  | ≥ 80 |  | ≥ 80 | ≥ 80 |  |  |  | 100
3 | C=C1C[C@]2(C)O[C@@]1(C(C)C)C[C@H]2OCc1ccccc1F [2-88, (1R,4S,5R)-5-((2-fluorobenzyl)oxy)-1-isopropyl-4-methyl-2-methylene-7-oxabicyclo[2.2.1]heptane] |  | ≥ 80 |  |  | ≥ 80 | ≥ 80 | ≥ 80 | ≥ 80 | 80
4 | C=C1C[C@]2(C)O[C@@]1(C(C)C)C[C@H]2OCc1ccccc1C [2-72, (1R,4S,5R)-1-isopropyl-4-methyl-5-((2-methylbenzyl)oxy)-2-methylene-7-oxabicyclo[2.2.1]heptane] |  | ≥ 80 |  |  | ≥ 80 | ≥ 80 | ≥ 80 | ≥ 80 | 
5 | Cc1ccccc1CO[C@@H]1C[C@]2(C(C)C)O[C@@]1(C)C[C@@H]2F [1-2, (1R,2S,4S,5R)-2-fluoro-1-isopropyl-4-methyl-5-((2-methylbenzyl)oxy)-7-oxabicyclo[2.2.1]heptane] | ≥ 80 | ≥ 80 |  | ≥ 80 | ≥ 80 |  | ≥ 80 |  | 94
6 | C#CCO[C@@H]1C[C@]2(C)O[C@@]1(C(C)C)C[C@H]2OCc1ccccc1F [1-931, (1S,2R,4R,5R)-2-[(2-fluorophenyl)methoxy]-1-methyl-4-isopropyl-5-prop-2-ynoxy-7-oxabicyclo[2.2.1]heptane] | ≥ 80 |  | ≥ 80 | ≥ 80 | ≥ 80 | ≥ 80 | ≥ 80 | ≥ 80 | 
7 | CC(C)[C@]12C=C[C@](C)(O1)C(OCc1ccccc1F)C2 (mixture of isomers) [3-5, (1R,4S,SR)-5-[(2-fluorophenyl)methoxy]-4-methyl-1-isopropyl-7-oxabicyclo[2.2.1]hept-2-ene] |  | ≥ 80 |  | ≥ 80 | ≥ 80 | ≥ 80 | ≥ 80 |  | 82
8 | CC(C)[C@]12C[C@@H](OCc3ccccc3F)[C@](C)(CC1OCC1CC1)O2 (mixture of isomers) [1-921, (1S,2R,4R,SR)-5-(cyclopropylmethoxy)-2-[(2-fluorophenyl)methoxy]-1-methyl-4-isopropyl-7-oxabicyclo[2.2.1]heptane] | ≥ 80 | ≥ 80 | ≥ 80 | ≥ 80 | ≥ 80 | ≥ 80 | ≥ 80 | ≥ 80 | 
9 | CC(C)[C@]12C[C@@H](OCc3c(F)cccc3F)[C@](C)(CC1=O)O2 [2-20, (1R,4S,5R)-5-((2,6-difluorobenzyl)oxy)-1-isopropyl-4-methyl-7-oxabicyclo[2.2.1]heptan-2-one] |  |  | ≥ 80 | ≥ 80 |  |  | ≥ 80 |  | 
10 | CC(C)[C@]12C[C@@H](OCc3ccccc3F)[C@](C)(C[C@@H]1OCc1ccccc1F)O2 [1-603, (1S,2R,4R,5S)-2,5-bis[(2-fluorophenyl)methoxy]-1-methyl-4-isopropyl-7-oxabicyclo[2.2.1]heptane] |  |  | ≥ 80 |  | ≥ 80 | ≥ 80 |  |  | 
